What was measured:
[1] = for Normal melting temperature: Crystal, DTA; for Normal boiling temperature: Liquid, not specified, probably DSC
[2] = molar heat capacity at constant pressure; conditions: 101.33 kPa, Small sample (50 mg) DSC
[3] = Molar enthalpy of transition or fusion; conditions: Crystal; DSC
[4] = molar enthalpy of vaporization or sublimation; conditions: Liquid, DSC

Cc1cccc(N(c2cccc(C)c2)c2cccc(C)c2)c1 [3-methyl-N,N-bis(3-methylphenyl)benzenamine]
Conditions | Molar enthalpy of transition or fusion [kcal/mol] | Normal boiling temperature [°C] | Normal melting temperature [°C]
[1] | – | 294.84 | 39.81
[3] | 3.12 | – | –

[2]
Conditions | molar heat capacity at constant pressure [J/K/mol]
240 K, Crystal | 1455.4
245 K, Crystal | 1383
250 K, Crystal | 1322.8
255 K, Crystal | 1274.6
260 K, Crystal | 1238.6
265 K, Crystal | 1214.8
270 K, Crystal | 1203
275 K, Crystal | 1203.4
280 K, Crystal | 1216
285 K, Crystal | 1240.6
290 K, Crystal | 1277.4
295 K, Crystal | 1326.3
300 K, Crystal | 1387.4
306 K, Crystal | 1476.7
336 K, Liquid | 1250.8
341 K, Liquid | 1249.7
346 K, Liquid | 1249.5
351 K, Liquid | 1250.1
356 K, Liquid | 1251.5
361 K, Liquid | 1253.8
366 K, Liquid | 1257
371 K, Liquid | 1261
376 K, Liquid | 1265.8
381 K, Liquid | 1271.5

Conditions | molar enthalpy [kcal/mol]
[4], 567.99 K | 8.98

Cc1ccc(N(c2ccc(C)cc2)c2cccc(C)c2)cc1 [3-methyl-N,N-bis(4-methylphenyl)benzenamine]
Conditions | Molar enthalpy of transition or fusion [kcal/mol] | Normal boiling temperature [°C] | Normal melting temperature [°C]
[1] | – | 315.94 | 56.70
[3] | 5.19 | – | –

[2]
Conditions | molar heat capacity at constant pressure [J/K/mol]
298 K, Crystal | 417.01
303 K, Crystal | 369.25
308 K, Crystal | 351.52
313 K, Crystal | 363.76
318 K, Crystal | 406.01
323 K, Crystal | 478.26
325 K, Crystal | 515.56
339 K, Liquid | 442.71
343 K, Liquid | 440.93
348 K, Liquid | 438.63
353 K, Liquid | 436.24
358 K, Liquid | 433.8
363 K, Liquid | 431.3
368 K, Liquid | 428.71
373 K, Liquid | 426.07
378 K, Liquid | 423.34
383 K, Liquid | 420.55
388 K, Liquid | 417.68
393 K, Liquid | 414.74

Conditions | molar enthalpy [kcal/mol]
[4], 589.09 K | 18.1

Cc1ccc(N(c2cccc(C)c2)c2cccc(C)c2)cc1 [3-methyl-N-(3-methylphenyl)-N-(4-methylphenyl)benzenamine]
Conditions | Molar enthalpy of transition or fusion [kcal/mol] | Normal boiling temperature [°C] | Normal melting temperature [°C]
[1] | – | 274.1 | 89.50
[3] | 6.31 | – | –

molar heat capacity at constant pressure [J/K/mol], [2]
Conditions | 330 K | 335 K | 340 K | 365 K | 369 K | 372 K
Crystal | 114.18 | 117.34 | 98.12 | – | – | –
Liquid | – | – | – | 143.7 | 141.06 | 137.86

Conditions | molar enthalpy [kcal/mol]
[4], 547.3 K | 16.6

Cc1ccc(N(c2ccc(C)cc2)c2ccc(C)cc2)cc1 [tri-tolylamine]
Conditions | Molar enthalpy of transition or fusion [kcal/mol] | Normal boiling temperature [°C] | Normal melting temperature [°C]
[1] | – | 300.89 | 115.59
[3] | 4.77 | – | –

Conditions | molar enthalpy [kcal/mol]
[4], 574.04 K | 17.3

Source: the NIST ThermoML archive (doi:10.1021/je0495785)
